target: T1, human Bradykinin B1 receptor (Homo sapiens, UniProt P46663); experiment: Calcium flux Assay (FLIPR) with recombinant CHO-K1 cells expressing human Bradykinin B1 receptor, in presence (hB1 IC50) or absence (hB1 free IC50) of 0.1% BSA; assay type: cell-based; details: in absence of 0.1% BSA, read-out: hB1 free IC50
T1 construct: host or cells: CHO-K1
T1 sequence (P46663 1-353): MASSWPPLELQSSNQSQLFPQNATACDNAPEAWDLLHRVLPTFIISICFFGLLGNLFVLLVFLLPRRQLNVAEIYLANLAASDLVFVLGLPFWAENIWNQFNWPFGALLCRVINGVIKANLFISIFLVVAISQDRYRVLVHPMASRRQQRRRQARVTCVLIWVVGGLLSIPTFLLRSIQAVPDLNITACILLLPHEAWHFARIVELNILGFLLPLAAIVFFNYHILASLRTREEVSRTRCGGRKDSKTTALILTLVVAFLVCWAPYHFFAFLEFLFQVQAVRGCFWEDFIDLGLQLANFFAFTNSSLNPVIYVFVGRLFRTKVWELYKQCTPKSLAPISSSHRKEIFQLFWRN

Row | Structure (SMILES) | IC50
1 | O=C(Nc1ccc(-c2cncc(F)c2)c(-c2nnn[nH]2)c1)C1(c2cccc(Cl)c2)CC1 [Example 335, 1-(3-chlorophenyl)-N-[4-(5-fluoropyridin-3-yl)-3-(1H-tetrazol-5-yl)phenyl]cyclopro-panecarboxa-mide] | 298 nM
2 | O=C(Nc1ccc(-c2ccc(Cl)nc2)c(-c2nnn[nH]2)c1)C1(c2cccc(Cl)c2)CC1 [Example 341, 1-(3-chlorophenyl)-N-[4-(6-chloropyridin-3-yl)-3-(1H-tetrazol-5-yl)phenyl]cyclopro-panecarboxa-mide] | 87.3 nM
3 | O=C(Nc1ccc(-n2cc(C(F)F)cn2)c(-c2nnn[nH]2)c1)C1(c2ccc(C(F)(F)F)cc2F)CC1 [Example 346, N-{4-[4-(Difluoromethyl)-1H-pyrazol-1-yl]-3-(1H-tetrazol-5-yl)phenyl}-1-[2-fluoro-4-(trifluoromethyl)phenyl]cyclopro-panecarboxamide] | 65.9 nM
4 | O=C(Nc1ccc(-n2cnc(C(F)(F)F)c2)c(-c2nnn[nH]2)c1)C1(c2ccc(C(F)(F)F)cc2F)CC1 [Example 347, 1-[2-Fluoro-4-(trifluoromethyl)phenyl]-N-{3-(1H-tetrazol-5-yl)-4-[4-(trifluoromethyl)-1H-imidazol-1-yl]phenyl}cyclopro-panecarboxa-mide] | 96.6 nM
5 | O=C(Nc1ccc(-n2ccc(C(F)(F)F)n2)c(-c2nnn[nH]2)c1)C1(c2ccc(C(F)(F)F)cc2F)CC1 [Example 348, 1-[2-Fluoro-4-(trifluoromethyl)phenyl]-N-{3-(1H-tetrazol-5-yl)-4-[3-(trifluoromethyl)-1H-pyrazol-1-yl]phenyl}cyclopro-panecarboxa-mide] | 122 nM
6 | O=C(Nc1ccc(-n2cc(C(F)(F)F)cn2)c(-c2nnn[nH]2)c1)C1(c2cccc(Cl)c2)CC1 [Example 349, 1-(3-Chlorophenyl)-N-{3-(1H-tetrazol-5-yl)-4-[4-(trifluoromethyl)-1H-pyrazol-1-yl]phenyl}cyclopro-panecarboxa-mide] | 590 nM
7 | O=C(Nc1ccc(-n2cc(C(F)F)cn2)c(-c2nnn[nH]2)c1)C1(c2cccc(Cl)c2)CC1 [Example 350, 1-(3-Chlorophenyl)-N-{4-[4-(difluoromethyl)-1H-pyrazol-1-yl]-3-(1H-tetrazol-5-yl)phenyl}cyclopro-panecarboxa-mide] | 804 nM
8 | O=C(Nc1ccc(-n2cnc(C(F)(F)F)c2)c(-c2nnn[nH]2)c1)C1(c2cccc(Cl)c2)CC1 [Example 352, 1-(3-Chlorophenyl)-N-{3-(1H-tetrazol-5-yl)-4-[4-(trifluoromethyl)-1H-imidazol-1-yl]phenyl}cyclopro-panecarboxa-mide] | 1200 nM
9 | O=C(Nc1ccc(-n2ccc(C(F)(F)F)n2)c(-c2nnn[nH]2)c1)C1(c2cccc(Cl)c2)CC1 [Example 354, 1-(3-Chlorophenyl)-N-{3-(1H-tetrazol-5-yl)-4-[3-(trifluoromethyl)-1H-pyrazol-1-yl]phenyl}cyclopro-panecarboxa-mide] | 1880 nM
10 | O=C(Nc1ccc(-n2ccc(C(F)(F)F)n2)c(-c2nnn[nH]2)c1)C1(c2ccc(F)c(F)c2)CC1 [Example 355, 1-(3,4-Difluorophenyl)-N-{3-(1H-tetrazol-5-yl)-4-[3-(trifluoromethyl)-1H-pyrazol-1-yl]phenyl}cyclopro-panecarboxa-mide] | 1880 nM
11 | O=C(Nc1ccc(-n2cnc(C(F)(F)F)n2)c(-c2nnn[nH]2)c1)C1(c2ccc(F)c(F)c2)CC1 [Example 358, 1-(3,4-difluorophenyl)-N-{3-(1H-tetrazol-5-yl)-4-[3-(trifluoromethyl)-1H-1,2,4-triazol-1-yl]phenyl}cyclopro-panecarboxa-mide] | 2970 nM

Other lines, results leading:

Row | IC50 | Structure (SMILES)
12 | 23.7 nM | Cn1ncc2cc(-c3ccc(NC(=O)C4(c5cccc(Cl)c5)CC4)cc3-c3nnn[nH]3)ccc21 [Example 339, 1-(3-chlorophenyl)-N-[4-(1-methyl-1H-indazol-5-yl)-3-(1H-tetrazol-5-yll)phenyl]cyclopro-panecarboxa-mide]
13 | 28.5 nM | O=C(Nc1ccc(-n2cc(C(F)(F)F)cn2)c(-c2nnn[nH]2)c1)C1(c2ccc(C(F)(F)F)cc2F)CC1 [Example 345, 1-[2-Fluoro-4-(trifluoromethyl)phenyl]-N-{3-(1H-tetrazol-5-yl)-4-[4-(trifluoromethyl)-1H-pyrazol-1-yl]phenyl}cyclopropanecarboxamide]
14 | 1060 nM | O=C(Nc1ccc(-n2cc(C(F)(F)F)cn2)c(-c2nnn[nH]2)c1)C1(c2ccc(F)c(F)c2)CC1 [Example 351, 1-(3,4-Difluorophenyl)-N-{3-(1H-tetrazol-5-yl)-4-[4-(trifluoromethyl)-1H-pyrazol-1-yl]phenyl}cyclopro-panecarboxa-mide]
15 | 1210 nM | O=C(Nc1ccc(-n2cc(C(F)F)cn2)c(-c2nnn[nH]2)c1)C1(c2ccc(F)c(F)c2)CC1 [Example 353, N-{4-[4-(Difluoromethyl)-1H-pyrazol-1-yl]-3-(1H-tetrazol-5-yl)phenyl}-1-(3,4-difluorophenyl)cy-clopropanecar-boxamide]
16 | 2350 nM | O=C(Nc1ccc(-n2cnc(C(F)(F)F)c2)c(-c2nnn[nH]2)c1)C1(c2ccc(F)c(F)c2)CC1 [Example 356, 1-(3,4-Difluorophenyl)-N-{3-(1H-tetrazol-5-yl)-4-[4-(trifluoromethyl)-1H-imidazol-1-yl]phenyl}cyclopro-panecarboxa-mide]
17 | 44.8 nM | O=C(Nc1ccc(-n2cnc(C3CCC3)n2)c(-c2nnn[nH]2)c1)C1(c2cccc(Cl)c2)CC1 [Example 357, 1-(3-chlorophenyl)-N-[4-(3-cyclobutyl-1H-1,2,4-triazol-1-yl)-3-(1H-tetrazol-5-yl)phenyl]cyclopro-panecarboxa-mide]
18 | 676 nM | Cc1nc(C(F)(F)F)nn1-c1ccc(NC(=O)C2(c3cccc(Cl)c3)CC2)cc1-c1nnn[nH]1 [Example 359, 1-(3-chlorophenyl)-N-{4-[5-methyl-3-(trifluoromethyl)-1H-1,2,4-triazol-1-yl]-3-(1H-tetrazol-5-yl)phenyl}cyclopro-panecarboxa-mide]
19 | 1700 nM | Cc1nc(C(F)(F)F)nn1-c1ccc(NC(=O)C2(c3ccc(F)c(F)c3)CC2)cc1-c1nnn[nH]1 [Example 360, 1-(3,4-difluorophenyl)-N-{4-[5-methyl-3-(trifluoromethyl)-1H-1,2,4-triazol-1-yl]-3-(1H-tetrazol-5-yl)phenyl}cyclopro-panecarboxa-mide]

same assay, conditions: in presence of 0.1% BSA, read-out: hB1 IC50

Row | Structure (SMILES) | IC50
20 | O=C(Nc1ccc(-c2cncc(F)c2)c(-c2nnn[nH]2)c1)C1(c2cccc(Cl)c2)CC1 [Example 335, 1-(3-chlorophenyl)-N-[4-(5-fluoropyridin-3-yl)-3-(1H-tetrazol-5-yl)phenyl]cyclopro-panecarboxa-mide] | 517 nM
21 | O=C(Nc1ccc(-c2ccc(Cl)nc2)c(-c2nnn[nH]2)c1)C1(c2cccc(Cl)c2)CC1 [Example 341, 1-(3-chlorophenyl)-N-[4-(6-chloropyridin-3-yl)-3-(1H-tetrazol-5-yl)phenyl]cyclopro-panecarboxa-mide] | 115 nM

Second part, the compound after the results:

Row | IC50 | Structure (SMILES)
22 | 1320 nM | N#Cc1cncc(-c2ccc(NC(=O)C3(c4cccc(Cl)c4)CC3)cc2-c2nnn[nH]2)c1 [Example 336, 1-(3-chlorophenyl)-N-[4-(5-cyanopyridin-3-yl)-3-(1H-tetrazol-5-yl)phenyl]cyclopro-panecarboxa-mide]
23 | 2030 nM | N#Cc1cc(F)cc(-c2ccc(NC(=O)C3(c4cccc(Cl)c4)CC3)cc2-c2nnn[nH]2)c1 [Example 337, 1-(3-chlorophenyl)-N-[3′-cyano-5′-fluoro-2-(1H-tetrazol-5-yl)biphenyl-4-yl]cyclopropane carboxamide]
24 | 46.7 nM | Cn1ncc2cc(-c3ccc(NC(=O)C4(c5cccc(Cl)c5)CC4)cc3-c3nnn[nH]3)ccc21 [Example 339, 1-(3-chlorophenyl)-N-[4-(1-methyl-1H-indazol-5-yl)-3-(1H-tetrazol-5-yll)phenyl]cyclopro-panecarboxa-mide]
25 | 1770 nM | CCOc1ccc(-c2cc(F)c(NC(=O)C3(c4cccc(Cl)c4)CC3)cc2-c2nnn[nH]2)cn1 [Example 342, 1-(3-chlorophenyl)-N-[4-(6-ethoxypyridin-3-yl)-2-fluoro-5-(1H-tetrazol-5-yl)phenyl]cyclopro-panecarboxa-mide]

— patent publication US20210317092A1 (BAYER PHARMA AKTIENGESELLSCHAFT, priority 2016, published 2021)
